Assay results published in patent US20100292257A1, “USES OF 2-[PIPERIDINYL] METHYL-2, 3-DIHYDROIMIDAZO [1,2-C] QUINAZOLIN-5 (6H)-ONE FOR PROVIDING AN ANALGESIC EFFECT, ANTI-ALLERGIC EFFECT AND HISTAMINE H1 RECEPTOR ANTAGONISM EFFECT” (Medical and Pharmaceutical Industry Technology and …, priority 2007, published 2010).

Assays:
[1] = system: Wistar derived male rats; assay: Passive cutaneous anaphylaxis; type: in vivo; details: for Total Score: wheal diameter score, group of five rats, vehicle 50
Protocol: A group of five Wistar derived male rats weighing 80±20 g was passively sensitized 16 hours earlier by intradermal injection of reaginic antiovalbumin serum (0.5 ml) on two spots of the dorsal surface. […] Within one hour after administration of the above substances, the animals were challenged intravenously with a mixture of ovalbumin (1 mg) and Evans Blue dye (5 mg) and sacrificed 30 minutes later. The two wheal diameters were measured for each animal and scored as follows: • Score 0: diameter<0.05 cm • Score 1: diameter 0.05-0.20 cm • Score 2: diameter 0.2-0.4 cm • Score 3: diameter 0.4-0.6 cm • Score 4: diameter 0.6-0.8 cm • Score 5: diameter>0.8 cm
Maximum possible score for each animal total 5×2=10. [Reference: Goose, J. and Blair, A. M. J. N. Passive cutaneous anaphylaxis in the rat, induced with two homologous reagin-like antibodies and its specific inhibition with disodium chromoglycate. Immunology 16: 749-760, 1969.]
(Total score of vehicle group−Total score of tested group)/(Total score of vehicle group)×100%

[2] = system: CD-1 (Crl.) derived male mice; assay: Phenylquinone (PQ)-induced writhing assay; type: in vivo; details: 1 h before phenylquinone 2 mg/kg i.p., writhes 5th-10th min, vehicle 15.1 ± 1.4
Protocol: Vehicle (2% Tween 80, 10 ml/kg), PDC-130 or aspirin was orally administered to a group of eight CD-1 (Crl.) derived male mice weighing 24±2 g. One hour later, phenylquinone (2 mg/kg) was given by intraperitoneal injection. […] of animals was observed and recorded during a period of time from the 5th to 10th minutes after PQ administration, [Reference: Siegmund, E, Cadmus, R. and Lu, G. A method for evaluating both non-narcotic and narcotic analgesics. Proc. Soc. Exp. Biol. Med. 952: 729-731, 1957.]

[3] = system: CD-1 (Crl.) derived male mice; assay: Acetic acid-induced writhing assay; type: in vivo; details: 1 h before acetic acid 0.5%, 20 ml/kg i.p., writhes 5th-10th min, vehicle 12.4 ± 1.5
Protocol: Vehicle (2% Tween 80, 10 ml/kg), PDC-130 or aspirin (100 mg/kg) was administered orally to groups of eight CD-1 (Crl.) derived male mice, weighing 24±2 g, 1 hour before intraperitoneal injection of acetic acid (0.5%, 20 ml/kg). The number of writhes of animals was observed and recorded during a period of time from the 5th to the 10th minutes period after acetic acid administration. [Reference: Inoue. K., Motonaga, A. and Nishimura, T. Mechanism of antiinflammatory action of etodolac. Arzneim-Forsch./Drug Res. 41: 235-239, 1991.]

[4] = molecular target: T1, Histamine H1 Receptor (Rattus norvegicus, UniProt P31390); assay: Histamine H1 antagonism (histamine-induced wheal); type: in vivo, rats; details: for Total Score: 1 h before intradermal histamine, wheal diameter score, group of five rats, vehicle 50; for Inhibition (%): inhibition of histamine-induced blue colored wheal vs vehicle
T1 construct: immediately challenged with two intradermal injection of histamine; from tissue; host or cells: living Wistar derived male rats (skin, intradermal histamine challenge)
Protocol: After one hour, animals were injected with Evans Blue dye (5 mg/0.5 ml/rat) intravenously and immediately challenged with two intradermal injection of histamine (each 30 μg/0.05 ml). The animals were sacrificed 30 minutes later. The two wheal diameters were then measured for each animal and scored as follows: • Score 0: diameter<0.05 cm • Score 1: diameter 0.05-0.20 cm • Score 2: diameter 0.2-0.4 cm • Score 3: diameter 0.4-0.6 cm • Score 4: diameter 0.6-0.8 cm • Score 5: diameter>0.8 cm
Maximum possible score for each animal total 5×2=10.

T1 sequence (P31390 whole entry): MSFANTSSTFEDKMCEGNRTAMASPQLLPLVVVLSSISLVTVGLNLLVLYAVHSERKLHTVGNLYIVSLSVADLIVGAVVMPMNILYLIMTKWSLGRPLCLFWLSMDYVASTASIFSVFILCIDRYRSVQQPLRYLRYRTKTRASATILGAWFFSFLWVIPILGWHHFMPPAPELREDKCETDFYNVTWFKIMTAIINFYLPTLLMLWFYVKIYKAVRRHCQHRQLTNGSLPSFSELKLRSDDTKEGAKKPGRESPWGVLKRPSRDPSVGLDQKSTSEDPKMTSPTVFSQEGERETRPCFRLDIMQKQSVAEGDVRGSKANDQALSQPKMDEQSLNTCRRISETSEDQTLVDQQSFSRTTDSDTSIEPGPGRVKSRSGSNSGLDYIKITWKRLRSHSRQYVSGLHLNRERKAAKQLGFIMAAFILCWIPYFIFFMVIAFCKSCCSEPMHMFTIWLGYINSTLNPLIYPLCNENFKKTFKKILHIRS

CN1CCC(=C2c3ccccc3C=Cc3ccccc32)CC1 [Cyproheptadine, cyproheptadine, reference compound]
Total Score ([1]; 1 mg/kg orally): 14
inhibition at 1 mg/kg ([1]; Rattus norvegicus, po, 1 mg/kg orally, inhibition of passive cutaneous anaphylaxis blue colored wheal vs vehicle): 72%

CC(=O)Oc1ccccc1C(=O)O [Aspirin, aspirin, reference compound]
Number of Writhing ([2]; 100 mg/kg orally): 5.5 ± 1.5
Number of Writhing ([3]; 100 mg/kg orally): 2.4 ± 1.0

O=C(c1ccc(F)cc1)C1CCN(CC2CN3C(=O)Nc4ccccc4C3=N2)CC1 (stereo not drawn) [PDC-130, 2-[1-(4-p-fluorobenzoyl)piperidinyl]methyl-2,3-dihydroimidazo[1,2-c]-quinazolin-5(6H)-one]
Inhibition (%) ([1]; 3 mg/kg orally, inhibition of passive cutaneous anaphylaxis blue colored wheal vs vehicle): 68%
Total Score ([1]; 3 mg/kg orally): 16
Inhibition (%) ([1]; 10 mg/kg orally, inhibition of passive cutaneous anaphylaxis blue colored wheal vs vehicle): 80%
Total Score ([1]; 10 mg/kg orally): 10
Inhibition (%) ([1]; 30 mg/kg orally, inhibition of passive cutaneous anaphylaxis blue colored wheal vs vehicle): 80%
Total Score ([1]; 30 mg/kg orally): 10
Number of Writhing ([2]; 0.03 mg/kg orally): 12.1 ± 1.6
Number of Writhing ([2]; 0.1 mg/kg orally): 6.4 ± 1.6
Number of Writhing ([2]; 0.3 mg/kg orally): 5.3 ± 1.7
Number of Writhing ([2]; 1 mg/kg orally): 2.8 ± 1.2
Total Score ([4]; 3 mg/kg orally): 20
Inhibition (%) ([4]; 3 mg/kg orally): 60%
Total Score ([4]; 10 mg/kg orally): 14
Inhibition (%) ([4]; 10 mg/kg orally): 72%
Total Score ([4]; 30 mg/kg orally): 10
Inhibition (%) ([4]; 30 mg/kg orally): 80%
Number of Writhing ([3]; 0.03 mg/kg orally): 12.1 ± 1.6
Number of Writhing ([3]; 0.1 mg/kg orally): 5.0 ± 1.0
Number of Writhing ([3]; 0.3 mg/kg orally): 5.3 ± 1.1
Number of Writhing ([3]; 1 mg/kg orally): 2.1 ± 1.1
